Reference: US20120034193A1, “TREATMENT OF NEUROTROPHIC FACTOR MEDIATED DISORDERS” (priority 2009, published 2012)

How the values were obtained:
Assay in all cases: Binding assay
Settings in all cases: smilagenin 1 μM
[1] = target: 5-Hydroxytryptamine, 5-HT2B (Homo sapiens, UniProt P41595)
Method in brief: (§1)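 Steps: incubate receptor-expressing homogenate with known-concentration radioligand and 1 μM compound; remove unbound radioligand; quantify specific binding; calculate percent inhibition versus the compound-free condition.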

[2] = target: 5-Hydroxytryptamine, 5-HT6 (Homo sapiens, UniProt P50406)
Method in brief: as §1

[3] = target: Adrenergic α1A (Rattus norvegicus, UniProt P43140)
Method in brief: as §1

[4] = target: Adrenergic α2C (Homo sapiens, UniProt P18825)
Method in brief: as §1

[5] = target: Adrenomedullin AM1 (Homo sapiens, UniProt O60895+Q16602)
Method in brief: as §1

[6] = target: Bombesin BB2 (Homo sapiens, UniProt P30550)
Method in brief: as §1

[7] = target: Bradykinin B2 (Homo sapiens, UniProt P30411)
Method in brief: as §1

[8] = target: Cannabinoid CB1 (Homo sapiens, UniProt P21554)
Method in brief: as §1

[9] = target: Cannabinoid CB2 (Homo sapiens, UniProt P34972)
Method in brief: as §1

[10] = target: Chemokine CCR1 (Homo sapiens, UniProt P32246)
Method in brief: as §1

[11] = target: Chemokine CCR4 (Homo sapiens, UniProt P51679)
Method in brief: as §1

[12] = target: Chemokine CCR5 (Homo sapiens, UniProt P51681)
Method in brief: as §1

[13] = target: Cholecystokinin CCK2 (CCKB) (Homo sapiens, UniProt P32239)
Method in brief: as §1

[14] = target: Dopamine D2S (Homo sapiens, UniProt P14416)
Method in brief: as §1

[15] = target: Dopamine D4.2 (Homo sapiens, UniProt P21917, DEL265-296)
Method in brief: as §1

[16] = target: T1, GABAB1B (Homo sapiens, UniProt Q9UBS5)
T1 construct: host or cells: tissue or cell homogenate (not specified)
Method in brief: as §1

[17] = target: T2, Histamine H3 (Homo sapiens, UniProt Q9Y5N1)
T2 construct: host or cells: tissue or cell homogenate (not specified)
Method in brief: as §1

[18] = target: Interleukin IL-2 (Mus musculus, UniProt P01590)
Method in brief: as §1

[19] = target: Interleukin IL-6 (Homo sapiens, UniProt P08887)
Method in brief: as §1

[20] = target: Leukotriene, Cysteinyl CysLT1 (Homo sapiens, UniProt Q9Y271)
Method in brief: as §1

[21] = target: Melanocortin MC1 (Homo sapiens, UniProt Q01726)
Method in brief: as §1

[22] = target: Melatonin MT2 (Homo sapiens, UniProt P49286)
Method in brief: as §1

[23] = target: Motilin (Homo sapiens, UniProt O43193)
Method in brief: as §1

[24] = target: T3, Muscarinic M2 (Homo sapiens, UniProt P08172)
T3 construct: host or cells: tissue or cell homogenate, not specified
Method in brief: as §1

[25] = target: Neuropeptide Y Y2 (Homo sapiens, UniProt P49146)
Method in brief: as §1

[26] = target: Opiate δ (OP1, DOP) (Homo sapiens, UniProt P41143)
Method in brief: as §1

[27] = target: Opiate μ (OP3, MOP) (Homo sapiens, UniProt P35372)
Method in brief: as §1

[28] = target: Orphanin ORL1 (Homo sapiens, UniProt P41146)
Method in brief: as §1

[29] = target: Potassium Channel HERG (Homo sapiens, UniProt Q12809)
Method in brief: as §1

[30] = target: Prostanoid Thromboxane A2 (TP) (Homo sapiens, UniProt P21731)
Method in brief: as §1

[31] = target: Ryanodine RyR3 (Rattus norvegicus, UniProt A0ABK0LPH6)
Method in brief: as §1

[32] = target: Sigma σ2 (Rattus norvegicus, UniProt Q5U3Y7)
Method in brief: as §1

[33] = target: Somatostatin sst2 (Homo sapiens, UniProt P30874)
Method in brief: as §1

[34] = target: Somatostatin sst3 (Homo sapiens, UniProt P32745)
Method in brief: as §1

[35] = target: T4, Transporter, Norepinephrine (NET) (Homo sapiens, UniProt P23975)
T4 construct: host or cells: tissue or cell homogenate, not specified
Method in brief: as §1

[36] = target: T5, Vasopressin V1A (Homo sapiens, UniProt P37288)
T5 construct: host or cells: tissue or cell homogenate, not specified
Method in brief: as §1

Sequence of Orphanin ORL1 (P41146 whole entry): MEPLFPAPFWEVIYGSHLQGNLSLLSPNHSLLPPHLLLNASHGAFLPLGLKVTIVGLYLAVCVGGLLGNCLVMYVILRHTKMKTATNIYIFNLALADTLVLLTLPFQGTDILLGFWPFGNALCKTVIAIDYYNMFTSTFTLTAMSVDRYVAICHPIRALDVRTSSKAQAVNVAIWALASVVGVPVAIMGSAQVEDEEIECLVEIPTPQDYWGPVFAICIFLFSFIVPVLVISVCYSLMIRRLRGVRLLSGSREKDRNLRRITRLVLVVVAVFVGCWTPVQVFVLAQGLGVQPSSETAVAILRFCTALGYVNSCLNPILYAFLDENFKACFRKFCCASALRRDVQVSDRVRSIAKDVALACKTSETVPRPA
Sequence of Interleukin IL-6 (P08887 20-468): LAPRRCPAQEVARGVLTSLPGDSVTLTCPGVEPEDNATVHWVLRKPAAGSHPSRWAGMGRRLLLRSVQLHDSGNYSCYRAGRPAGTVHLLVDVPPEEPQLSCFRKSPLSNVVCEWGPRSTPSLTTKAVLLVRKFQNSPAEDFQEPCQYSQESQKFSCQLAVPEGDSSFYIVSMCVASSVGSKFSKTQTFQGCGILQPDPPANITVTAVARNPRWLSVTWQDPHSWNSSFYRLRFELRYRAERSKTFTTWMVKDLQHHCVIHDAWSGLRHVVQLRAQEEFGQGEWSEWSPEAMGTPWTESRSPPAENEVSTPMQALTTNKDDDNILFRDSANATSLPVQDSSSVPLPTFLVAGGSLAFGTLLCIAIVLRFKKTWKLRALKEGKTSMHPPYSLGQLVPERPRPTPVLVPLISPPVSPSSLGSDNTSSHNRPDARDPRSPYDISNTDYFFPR
Sequence of Adrenergic α2C (P18825 whole entry): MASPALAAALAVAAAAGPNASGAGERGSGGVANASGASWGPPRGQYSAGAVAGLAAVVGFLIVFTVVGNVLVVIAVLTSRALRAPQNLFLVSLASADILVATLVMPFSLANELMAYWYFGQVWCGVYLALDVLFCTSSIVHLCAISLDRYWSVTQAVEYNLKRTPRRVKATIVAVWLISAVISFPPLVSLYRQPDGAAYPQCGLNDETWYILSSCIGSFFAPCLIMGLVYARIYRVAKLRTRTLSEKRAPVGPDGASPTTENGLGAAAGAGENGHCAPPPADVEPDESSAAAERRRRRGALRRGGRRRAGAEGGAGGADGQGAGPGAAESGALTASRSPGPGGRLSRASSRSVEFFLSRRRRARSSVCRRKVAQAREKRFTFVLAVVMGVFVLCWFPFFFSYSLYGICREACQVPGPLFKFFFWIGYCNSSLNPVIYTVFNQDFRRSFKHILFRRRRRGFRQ
Sequence of Adrenergic α1A (P43140 whole entry): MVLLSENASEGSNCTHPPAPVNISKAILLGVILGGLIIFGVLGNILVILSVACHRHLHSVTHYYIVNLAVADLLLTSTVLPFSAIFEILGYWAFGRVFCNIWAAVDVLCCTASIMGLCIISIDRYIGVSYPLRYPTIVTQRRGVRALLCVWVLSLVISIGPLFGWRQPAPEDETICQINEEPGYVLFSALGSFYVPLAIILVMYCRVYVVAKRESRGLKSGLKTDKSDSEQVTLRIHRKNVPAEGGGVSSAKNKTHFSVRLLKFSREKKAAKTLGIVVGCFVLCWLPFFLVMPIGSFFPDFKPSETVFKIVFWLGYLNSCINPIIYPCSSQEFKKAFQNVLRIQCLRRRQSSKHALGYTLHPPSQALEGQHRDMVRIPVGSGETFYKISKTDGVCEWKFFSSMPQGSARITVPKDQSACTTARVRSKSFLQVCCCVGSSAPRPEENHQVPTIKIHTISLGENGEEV
T2 sequence (Q9Y5N1 whole entry): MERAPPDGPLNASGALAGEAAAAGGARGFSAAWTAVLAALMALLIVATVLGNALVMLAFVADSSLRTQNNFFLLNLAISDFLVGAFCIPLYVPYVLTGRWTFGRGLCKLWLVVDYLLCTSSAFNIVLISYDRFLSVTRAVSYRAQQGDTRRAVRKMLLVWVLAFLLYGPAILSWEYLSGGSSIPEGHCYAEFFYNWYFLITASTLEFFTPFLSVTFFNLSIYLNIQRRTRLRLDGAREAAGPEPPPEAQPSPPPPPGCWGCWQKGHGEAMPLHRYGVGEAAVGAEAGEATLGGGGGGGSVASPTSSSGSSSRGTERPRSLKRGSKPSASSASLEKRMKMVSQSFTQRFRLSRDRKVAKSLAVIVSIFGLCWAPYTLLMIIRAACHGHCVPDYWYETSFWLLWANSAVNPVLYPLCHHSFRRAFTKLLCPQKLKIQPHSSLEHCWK
Sequence of Cannabinoid CB1 (P21554 whole entry): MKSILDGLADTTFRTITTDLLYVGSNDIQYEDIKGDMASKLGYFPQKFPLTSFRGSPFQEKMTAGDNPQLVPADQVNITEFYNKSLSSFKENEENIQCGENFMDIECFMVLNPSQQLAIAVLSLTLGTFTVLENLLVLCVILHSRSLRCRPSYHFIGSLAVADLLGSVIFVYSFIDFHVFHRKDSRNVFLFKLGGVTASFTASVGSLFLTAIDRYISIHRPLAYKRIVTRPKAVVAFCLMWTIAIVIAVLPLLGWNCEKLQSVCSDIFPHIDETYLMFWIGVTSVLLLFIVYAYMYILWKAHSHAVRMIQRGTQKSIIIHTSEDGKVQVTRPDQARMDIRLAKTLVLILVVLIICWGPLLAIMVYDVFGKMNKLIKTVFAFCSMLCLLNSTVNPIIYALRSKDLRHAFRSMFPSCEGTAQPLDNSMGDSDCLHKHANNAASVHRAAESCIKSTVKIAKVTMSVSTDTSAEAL
Sequence of Leukotriene, Cysteinyl CysLT1 (Q9Y271 whole entry): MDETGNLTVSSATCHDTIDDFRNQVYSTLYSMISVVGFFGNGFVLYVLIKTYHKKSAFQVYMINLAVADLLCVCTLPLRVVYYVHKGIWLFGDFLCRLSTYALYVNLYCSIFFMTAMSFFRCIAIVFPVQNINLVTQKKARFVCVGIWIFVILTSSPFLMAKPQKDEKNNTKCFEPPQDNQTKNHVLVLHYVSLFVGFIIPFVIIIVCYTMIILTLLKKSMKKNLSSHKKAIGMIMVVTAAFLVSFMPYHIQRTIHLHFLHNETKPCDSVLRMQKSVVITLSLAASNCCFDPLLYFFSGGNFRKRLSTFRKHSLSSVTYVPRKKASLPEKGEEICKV
Sequence of Potassium Channel HERG (Q12809 whole entry): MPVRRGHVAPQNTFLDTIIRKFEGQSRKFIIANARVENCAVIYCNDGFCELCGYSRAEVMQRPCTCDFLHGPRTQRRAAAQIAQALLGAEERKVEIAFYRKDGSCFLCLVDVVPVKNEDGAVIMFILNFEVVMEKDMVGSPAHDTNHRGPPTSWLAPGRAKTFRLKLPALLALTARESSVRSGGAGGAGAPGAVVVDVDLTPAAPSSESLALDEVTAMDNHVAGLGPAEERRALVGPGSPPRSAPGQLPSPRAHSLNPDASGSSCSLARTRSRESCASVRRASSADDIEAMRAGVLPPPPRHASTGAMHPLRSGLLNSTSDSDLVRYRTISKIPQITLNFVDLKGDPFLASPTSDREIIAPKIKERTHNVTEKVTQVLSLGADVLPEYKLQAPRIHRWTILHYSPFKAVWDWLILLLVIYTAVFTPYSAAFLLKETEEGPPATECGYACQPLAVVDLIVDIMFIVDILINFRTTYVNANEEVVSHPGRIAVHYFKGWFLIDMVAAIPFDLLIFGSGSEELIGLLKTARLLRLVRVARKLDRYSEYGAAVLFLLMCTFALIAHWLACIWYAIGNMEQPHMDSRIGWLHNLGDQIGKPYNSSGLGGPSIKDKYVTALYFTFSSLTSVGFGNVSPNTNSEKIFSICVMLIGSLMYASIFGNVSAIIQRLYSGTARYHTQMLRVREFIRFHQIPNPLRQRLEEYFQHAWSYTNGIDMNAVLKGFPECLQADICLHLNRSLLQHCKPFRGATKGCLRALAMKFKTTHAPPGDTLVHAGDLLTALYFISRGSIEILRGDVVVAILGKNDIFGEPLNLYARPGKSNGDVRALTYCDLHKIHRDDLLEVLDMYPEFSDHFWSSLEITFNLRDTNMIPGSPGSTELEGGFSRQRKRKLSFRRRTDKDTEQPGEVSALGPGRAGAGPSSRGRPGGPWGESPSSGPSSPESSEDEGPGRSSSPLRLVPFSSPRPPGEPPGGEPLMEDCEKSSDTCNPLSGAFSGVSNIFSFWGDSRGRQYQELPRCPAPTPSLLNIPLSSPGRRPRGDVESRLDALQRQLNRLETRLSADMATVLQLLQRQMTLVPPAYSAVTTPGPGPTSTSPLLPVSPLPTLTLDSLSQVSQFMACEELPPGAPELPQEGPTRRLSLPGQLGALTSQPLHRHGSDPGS
Sequence of Somatostatin sst2 (P30874 whole entry): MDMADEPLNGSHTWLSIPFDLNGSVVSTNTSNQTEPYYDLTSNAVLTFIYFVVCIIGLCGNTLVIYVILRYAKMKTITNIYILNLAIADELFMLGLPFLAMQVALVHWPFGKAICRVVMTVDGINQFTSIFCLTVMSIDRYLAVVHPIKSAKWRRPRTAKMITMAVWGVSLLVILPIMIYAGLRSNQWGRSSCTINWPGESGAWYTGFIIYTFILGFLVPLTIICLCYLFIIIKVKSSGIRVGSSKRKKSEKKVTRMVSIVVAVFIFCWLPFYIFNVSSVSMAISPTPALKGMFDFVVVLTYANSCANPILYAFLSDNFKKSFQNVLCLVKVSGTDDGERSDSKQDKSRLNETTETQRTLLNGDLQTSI
Sequence of Dopamine D2S (P14416 1-414 isoform P14416-2): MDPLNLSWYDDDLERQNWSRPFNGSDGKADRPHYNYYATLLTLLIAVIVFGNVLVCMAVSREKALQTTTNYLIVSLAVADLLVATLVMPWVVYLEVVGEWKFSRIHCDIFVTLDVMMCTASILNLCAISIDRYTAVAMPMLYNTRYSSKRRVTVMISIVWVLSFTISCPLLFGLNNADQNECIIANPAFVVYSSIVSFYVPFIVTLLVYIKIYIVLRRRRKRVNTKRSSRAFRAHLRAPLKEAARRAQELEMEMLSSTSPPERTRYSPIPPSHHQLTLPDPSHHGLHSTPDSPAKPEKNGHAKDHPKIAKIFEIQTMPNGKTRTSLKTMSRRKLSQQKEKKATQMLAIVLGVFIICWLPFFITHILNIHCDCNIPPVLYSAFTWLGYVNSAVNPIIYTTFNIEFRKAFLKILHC

## C[C@@H]1CC[C@@]2(OC1)O[C@H]1C[C@H]3[C@@H]4CC[C@@H]5C[C@@H](O)CC[C@]5(C)[C@H]4CC[C@]3(C)[C@H]1[C@@H]2C [Smilagenin, smilagenin]
[1]
  Effect (%): NS (NS = No significant response. Significance was taken as ≧30% stimulation or inhibition)
[2]
  Effect (%): NS (NS = No significant response. Significance was taken as ≧30% stimulation or inhibition)
[3]
  Effect (%): NS (NS = No significant response. Significance was taken as ≧30% stimulation or inhibition)
[4]
  Effect (%): NS (NS = No significant response. Significance was taken as ≧30% stimulation or inhibition)
[5]
  Effect (%): NS (NS = No significant response. Significance was taken as ≧30% stimulation or inhibition)
[6]
  Effect (%): NS (NS = No significant response. Significance was taken as ≧30% stimulation or inhibition)
[7]
  Effect (%): NS (NS = No significant response. Significance was taken as ≧30% stimulation or inhibition)
[8]
  Effect (%): NS (NS = No significant response. Significance was taken as ≧30% stimulation or inhibition)
[9]
  Effect (%): NS (NS = No significant response. Significance was taken as ≧30% stimulation or inhibition)
[10]
  Effect (%): NS (NS = No significant response. Significance was taken as ≧30% stimulation or inhibition)
[11]
  Effect (%): NS (NS = No significant response. Significance was taken as ≧30% stimulation or inhibition)
[12]
  Effect (%): NS (NS = No significant response. Significance was taken as ≧30% stimulation or inhibition)
[13]
  Effect (%): NS (NS = No significant response. Significance was taken as ≧30% stimulation or inhibition)
[14]
  Effect (%): NS (NS = No significant response. Significance was taken as ≧30% stimulation or inhibition)
[15]
  Effect (%): NS (NS = No significant response. Significance was taken as ≧30% stimulation or inhibition)
[16]
  Effect (%): NS (NS = No significant response. Significance was taken as ≧30% stimulation or inhibition)
[17]
  Effect (%): NS (NS = No significant response. Significance was taken as ≧30% stimulation or inhibition)
[18]
  Effect (%): NS (NS = No significant response. Significance was taken as ≧30% stimulation or inhibition)
[19]
  Effect (%): NS (NS = No significant response. Significance was taken as ≧30% stimulation or inhibition)
[20]
  Effect (%): NS (NS = No significant response. Significance was taken as ≧30% stimulation or inhibition)
[21]
  Effect (%): NS (NS = No significant response. Significance was taken as ≧30% stimulation or inhibition)
[22]
  Effect (%): NS (NS = No significant response. Significance was taken as ≧30% stimulation or inhibition)
[23]
  Effect (%): NS (NS = No significant response. Significance was taken as ≧30% stimulation or inhibition)
[24]
  Effect (%): NS (NS = No significant response. Significance was taken as ≧30% stimulation or inhibition)
[25]
  Effect (%): NS (NS = No significant response. Significance was taken as ≧30% stimulation or inhibition)
[26]
  Effect (%): NS (NS = No significant response. Significance was taken as ≧30% stimulation or inhibition)
[27]
  Effect (%): NS (NS = No significant response. Significance was taken as ≧30% stimulation or inhibition)
[28]
  Effect (%): NS (NS = No significant response. Significance was taken as ≧30% stimulation or inhibition)
[29]
  Effect (%): NS (NS = No significant response. Significance was taken as ≧30% stimulation or inhibition)
[30]
  Effect (%): NS (NS = No significant response. Significance was taken as ≧30% stimulation or inhibition)
[31]
  Effect (%): NS (NS = No significant response. Significance was taken as ≧30% stimulation or inhibition)
[32]
  Effect (%): NS (NS = No significant response. Significance was taken as ≧30% stimulation or inhibition)
[33]
  Effect (%): NS (NS = No significant response. Significance was taken as ≧30% stimulation or inhibition)
[34]
  Effect (%): NS (NS = No significant response. Significance was taken as ≧30% stimulation or inhibition)
[35]
  Effect (%): NS (NS = No significant response. Significance was taken as ≧30% stimulation or inhibition)
[36]
  Effect (%): NS (NS = No significant response. Significance was taken as ≧30% stimulation or inhibition)
